Results reported in patent US20030083266A1 (priority 2002, published 2003).
Each block holds one compound with its values, some of them ahead of it.

Experiments:
PC12 cells [1] = assay: In vitro intracellular antioxidation: [3H]-thymidine uptake by PC12 cells under 6-hydroxy-dopamine oxidative stress; type: cell-based; settings: 0.5 mM 6-hydroxy-dopamine 24 hour
Description: One of the main characteristics of the oxidative effects in PC12 cells are mimicked by 6-hydroxy-dopamine which is a false neurotransmitter taken up by the cells. Therefore, 6-hydroxy-dopamine was used as another oxidative agent and tested the protective antioxidant efficiencies of compounds A-D within the cells.
With reference now to FIG. 2. To this end, PC12 cells were subjected to high concentration (0.5 mM) of 6-hydroxy-dopamine (6-HO-DA) for 24 hour, in the presence of 0.3 mM or 0.8 mM of compounds A-D or 1 mM of reduced glutathione (GSH) a natural antioxidant, as shown in the front row of FIG. 2. A similar set of cells was treated with the same concentrations of compounds A-D and of reduced glutathione, yet without 6-hydroxy-dopamine, as shown in the back row of FIG. 2. Due to the high lipophylicity of the antioxidants used, they were first dissolved in dimethyl sulfoxide (DMSO), then in water and were applied to the cells in a final concentration of 3% DMSO. [^3H]-thymidine was added to the cells (1 μCi/100,000 cells) six hours prior to the end of the 24 hour period.
The results presented in FIG. 2 are the mean of triplicate wells taken from three independent cell batches, wherein control represent untreated cells and is defined as 100% [^3H]-thymidine uptake. The effect of DMSO on the cells was tested separately as shown.

[2] = tested on: endogenous reduced glutathione (GSH); assay: In vivo antioxidation: striatum/serum endogenous GSH after IP injection; set-up: species or system Balb/c mice; settings: mice, injected IP, 100-300 mg/kg, three hours post injection
Description: With reference now to FIG. 3. To this end, three groups of two months old Balb/c mice containing two animals in each group were injected intraperitonealy (IP) with 100-300 mg/kg body weight of compound A. Blood samples were drawn from the tail three hours post injection and then the animals were sacrificed and either the corpus striatum or the whole brain were removed and analyzed for GSH levels.
GSH levels were determined using the experimental procedures as described hereinbelow and/or the GSH-400 kit (Oxis International, Inc.).
Preparation of brain homogenates: Animals were rapidly killed and exsanguinated to remove excess blood from the brain. The brain of each animal was rinsed in a beaker containing water, lightly blotted to dry and were weighted. The striatums were transferred into a hand-homogenizer tube and each was homogenized using a constant number (e.g., 20) of up and down strokes of the hand-homogenizer pestle. Each of the homogenates was poured into a centrifuge tube and centrifuged for 10,000×g for 5 min. The supernatant was used for GSH determination as follows.
GSH Assay: For each measurement, 200 μl of sample were incubated with 20 μl DTNB [5,5′ dithio bis(2-nitrobenzoic acid)] for 1 hour in 37° C. Final absorbance was measured at 400 nm. Similar results were obtained using the GSH-400 kit. […]

PC12 cells [3] = assay: In vitro extracellular antioxidation: [3H]-thymidine uptake by PC12 cells under dopamine oxidative stress; type: cell-based; settings: 0.5 mM dopamine 24 hours
Description: Compounds A-D were assayed in vitro for their extracellular antioxidant activities. The assays were carried out with PC12 cells (Offen et al., 1996) subjected to a high dose of dopamine which confers oxidative stress to these cells by forming oxidation products during its oxidation in the growth medium, i.e., extracellularly.
With reference now to FIG. 1. To this end, PC12 cells were subjected to high concentration of dopamine (0.5 mM) for 24 hours in the presence of increasing concentrations (0 mM, 0.03 mM, 0.1 mM, 0.3 mM and 0.9 mM) of the various compounds A-D. [^3H]-thymidine was added to the cells (1 μCi/100,000 cells) six hours before the end of the 24 hours period. Due to the high lipophylicity of compounds A-D, the compounds were first dissolved in dimethyl sulfoxide (DMSO) and then in water and were applied to the cells in a final concentration of 3% DMSO. The effect of 3% DMSO on the cells was tested separately and the values presented in FIG. 1 are after the appropriate corrections.
[^3H]-thymidine uptake was measured in triplicate wells containing cells pretreated with dopamine alone and dopamine with each of compounds A-D at the concentrations as indicated above. The results presented in FIG. 1 show the mean of triplicate wells taken from three independent cell batches, wherein control represent cells treated only with 3% DMSO and is defined as 100% [^3H]-thymidine uptake (not shown).

[4] = tested on: Neuroblastoma SHSY5Y (NB) cells; assay: Protection from oxidative stress in vitro, neutral red survival assay; type: cell-based
Description: Protection from oxidative stress in vitro: Neuroblastoma SHSY5Y (NB) cells were maintained in Dulbeco's Modified Eagle's Medium (DMEM), supplemented with 8% FCS and 8% horse serum, penicillin (25 μg/ml), streptomycin (25 μg/ml), 2 mM L-glutamine and 400 μg/ml G418 (Gibco/BRL). For protection experiments cells were subcultured (in 2% serum) to poly-L-lysine-coated 96-well microtiter plates (Nunc), 100 μl of 5×10^5 cells/ml, CEA was applied to the cells in each well and 4 hours later DA, L-dopa (levodopa), 6-OHDA and MPP+ were added for 24 hours.
Survival was assayed by adding neutral red (0.34%, Sigma) to cells in DCCM-1 medium (0.1 ml/well, Bet-Haemek) and incubation for 2 hour at 37° C. The cells were then washed with cold PBS containing 10 mM MgCl2 and the dye was dissolved in 50% ethanol in 50% Somerson buffer (70 mM sodium citrate, 30 mM citric acid, 0.1 N HCl). ELISA reader (590 nm) was used to measure the remaining color intensity.

[5] = Crossing the blood-brain-barrier: compound level in brain extracts by HPLC after IP injection; type: in vivo, C57BL/6J mice; settings: mice
Description: Detection of compound j (referred to in this Example also as CEA) was established using high performance liquid chromatography (HPLC). To this end, CEA was treated with a fluorescent thiolyte reagent (monobromobimane reagent) and analyzed on an HPLC column.
Crossing the blood-brain-barrier: In vivo experiments were carried out on C57BL/6J mice (15 grams) injected IP with compound J. After incubation (15 min, 60 min or 4 hours) the mice were anesthetized with ether and blood samples were drawn. Then mice underwent perfusion with 50 ml of saline, injected into the right ventricle. The levels of […] in the brain and in the plasma were detected by selective fluorescent labeling using high performance liquid chromatography (HPLC).
Increasing amounts of compound J were injected IP and 15 min later, mice were perfused with saline and compound J levels in the brain extracts were determined by HPLC chromatography (FIG. 5b), as compared to a control, pure, uninjected compound J (FIG. 5a).

GSH = assay: Brain GSH levels after IP injection of compound J (HPLC); type: in vivo, C57BL/6J mice; settings: mice brain extract after IP injection

SMILES: CC(=O)N[C@H](C(=O)O)C(C)(C)S [compound C, N-acetyl-β,β-dimethyl cysteine]
- Increase of [3H]-thymidine uptake of 6-hydroxy-dopamine treated cells (PC12 cells [1]; compound at 0.3 mM): Ca. 1.5

- Crossing of the blood brain barrier [2]: crosses the blood brain barrier
SMILES: CCOC(=O)[C@H](CS)NC(C)=O [compound A, N-acetyl cysteine ethyl ester]
- Level of endogenous GSH at the striatum [2]: increases the level of endogenous GSH

SMILES: CCOC(=O)CNC(=O)C(CS)NC(=O)CCC(N)C(=O)O (stereo not shown) [compound D, Glutathione ethyl ester]
- Increase of [3H]-thymidine uptake (PC12 cells [3]; compound at 0.03 mM): Ca. 2.5
- Increase of [3H]-thymidine uptake (PC12 cells [3]; compound at 0.1 mM): Ca. 2.5
- Increase of [3H]-thymidine uptake of 6-hydroxy-dopamine treated cells (PC12 cells [1]; compound at 0.3 mM): Ca. 3.5
- Increase of [3H]-thymidine uptake of 6-hydroxy-dopamine treated cells (PC12 cells [1]; compound at 0.8 mM): Ca. 3.5

SMILES: CCOC(=O)C(NC(C)=O)C(C)(C)S (stereo not shown) [compound B, N-acetyl-penicillamine ethyl ester]
- Increase of [3H]-thymidine uptake (PC12 cells [3]; compound at 0.03 mM): Ca. 1.5

- Compound level in the brain ([5]; IP injection 0.25-4 mg, 15 min, brain extracts): concentration-dependent increase
- Crossing of the BBB ([5]; IP injection, fluorescent labeling and HPLC): crosses the BBB
SMILES: CC(=O)NC(CS)C(N)=O (stereo not shown) [compound J]
- Cell survival ([4]; 0.3 mM compound, neutral red assays): up to 95%
- Protection of cells against toxicity (>50%) of DA, L-dopa, 6-OHDA and MPP+ ([4]; compound at 0.1 mM, DA, L-dopa, 6-OHDA 0.1-0.25 mM, MPP+ 0.5-2 mM, 24 hours): protect the cells
- Increase of GSH levels over untreated animals (GSH): up to 46%
